Experimental data from patent US12083140B2, “Pharmaceutical composition for preventing and treating glaucoma, containing adenosine derivative” (FUTURE MEDICINE CO., LTD., priority 2017, dated 2024).

Columns and labels:
TIMP (TIMP 1, TIMP2) = assay: TIMP enzyme protein and mRNA expression in trabecular meshwork tissue; assay type: in vivo, C57BL/6J mice; settings: Example 2 oral 20 mg/kg once a day and 10 mg/kg twice a day; acetazolamide 4.17 mg/kg once a day
Experimental: (§1) In Experimental Example 10, the expression amounts of these proteins and mRNAs in MMP and TIMP enzymes were measured for the eye tissues of the respective laboratory animals which the measurement of the intraocular pressure was completed, and the results are shown in FIG. 14 to FIG. 17. FIG. 14 and FIG. 15 show protein expression amounts of MMP (MMP2, MMP9) and TIMP (TIMP 1, TIMP2) enzymes, respectively. FIG. 16 and FIG. 17 show mRNA expression levels. In FIG. 14 to FIG. 17, Normal represents the expression level of the animal to which the dexamethasone was not treated in Experimental Example 10, Control represents the expression level of the animal to which only the excipient was administered in Experimental Example 10, and Acetazolamide represents the expression level of the animal to which acetazolamide was administered in Experimental Example 10.

hERG = hERG (Homo sapiens, UniProt Q12809); assay: Cardiotoxicity, hERG ligand binding assay (fluorescence polarization)
[1] = test system: histidine-requiring Salmonella (TA98, TA100, TA1535 and TA1537 strains) and tryptophan-requiring E. coli (WP2uvrA (pKM101) strain); assay: Genotoxicity, back-mutation test with and without metabolic activation; assay type: cell-based
[2] = test system: extracellular matrix proteins (Fibronectin, SMA and MYOC); assay: Anti-fibrotic effect on trabecular meshwork tissue (immunostaining); assay type: in vivo, C57BL/6J mice; settings: Example 2 oral 20 mg/kg once a day and 10 mg/kg twice a day; acetazolamide 4.17 mg/kg once a day
Experimental: In Experimental Example 10, the ocular tissues of each laboratory animal after measurement of intraocular pressure were extracted and sectioned and immunostaining using antibody was performed to confirm the expression of extracellular matrix proteins (Fibronectin, SMA and MYOC) and the results are shown in FIG. 13. In FIG. 13, Normal represents the trabecular meshwork of the animal which dexamethasone was not treated with in Experimental Example 10, Control represents the trabecular meshwork tissue of the animal to which only the excipient was administered in Experimental Example 10, Acetazolamide represents the trabecular meshwork tissue of the animal to which acetazolamide was administered in Experimental Example 10. Fluorescently stained tissue was observed under fluorescence microscope under the same conditions (magnification 200×, exposure time 1 sec).

intraocular pressure = assay: Intraocular pressure reduction after oral administration, dexamethasone-elevated intraocular pressure; assay type: in vivo, C57BL/6J mice; settings: oral, 5, 10, 20 mg/kg once a day and 10 mg/kg twice a day, 22 days
Experimental: In order to examine the intraocular pressure lowering effect of the derivatives of the present invention, the following animal experiments were performed. […] As controls, only the above excipients were administered to laboratory animals with elevated intraocular pressure once a day, or experimental animals were not treated with dexamethasone or with 4.17 mg/kg of acetazolamide, an intraocular pressure lowering agent, once a day.
Then, the intraocular pressure of the test animal was measured at predetermined intervals for 22 days, and the results are shown in FIG. 8 to FIG. 12. In FIG. 8 to FIG. 12, Control represents a control group in which dexamethasone is not treated to laboratory animals, Vehicle represents a control group in which only excipients were orally administered to laboratory animals with elevated intraocular pressure, and Acetazolamide represents control group in which acetazolamide, an intraocular pressure lowering agent was orally administered to laboratory animals with elevated intraocular pressure.

rats = assay: Single dose toxicity test; assay type: in vivo
MMP (MMP2, MMP9) = assay: MMP enzyme protein and mRNA expression in trabecular meshwork tissue; assay type: in vivo, C57BL/6J mice; settings: Example 2 oral 20 mg/kg once a day and 10 mg/kg twice a day; acetazolamide 4.17 mg/kg once a day
Experimental: as §1

[3] = test system: TPA-induced mouse ear edema; assay: Anti-inflammatory activity, TPA-induced mouse ear edema; assay type: in vivo, ICR mice; settings: 0.5% in acetone
Experimental: In order to investigate the anti-inflammatory activity of the derivatives of the present invention, the animal experiments were performed as below. Seven-week-old male ICR mice were treated with TPA (12-O-tetradecanoylphorbol 13-acetate, […]) in the right ear. […] The same experiment was performed by treating hydrocortisone used as a treatment agent for inflammation as a control at the same concentration.
Subsequently, secondly, the adenosine derivative compound of the present invention was treated after 6 hours from TPA treatment. Twenty-four hours after TPA treatment, the animals were euthanized using the cervical dislocation method. Then, a right ear sample was obtained using a 6 mm diameter punch. The activity could be confirmed by weighing using a microbalance. The inhibition rate (%) was calculated using the following Equation 1.

each cell line = assay: Cytotoxicity, Cyto X cell viability assay kit; assay type: cell-based

hERG, sequence (Q12809 whole entry): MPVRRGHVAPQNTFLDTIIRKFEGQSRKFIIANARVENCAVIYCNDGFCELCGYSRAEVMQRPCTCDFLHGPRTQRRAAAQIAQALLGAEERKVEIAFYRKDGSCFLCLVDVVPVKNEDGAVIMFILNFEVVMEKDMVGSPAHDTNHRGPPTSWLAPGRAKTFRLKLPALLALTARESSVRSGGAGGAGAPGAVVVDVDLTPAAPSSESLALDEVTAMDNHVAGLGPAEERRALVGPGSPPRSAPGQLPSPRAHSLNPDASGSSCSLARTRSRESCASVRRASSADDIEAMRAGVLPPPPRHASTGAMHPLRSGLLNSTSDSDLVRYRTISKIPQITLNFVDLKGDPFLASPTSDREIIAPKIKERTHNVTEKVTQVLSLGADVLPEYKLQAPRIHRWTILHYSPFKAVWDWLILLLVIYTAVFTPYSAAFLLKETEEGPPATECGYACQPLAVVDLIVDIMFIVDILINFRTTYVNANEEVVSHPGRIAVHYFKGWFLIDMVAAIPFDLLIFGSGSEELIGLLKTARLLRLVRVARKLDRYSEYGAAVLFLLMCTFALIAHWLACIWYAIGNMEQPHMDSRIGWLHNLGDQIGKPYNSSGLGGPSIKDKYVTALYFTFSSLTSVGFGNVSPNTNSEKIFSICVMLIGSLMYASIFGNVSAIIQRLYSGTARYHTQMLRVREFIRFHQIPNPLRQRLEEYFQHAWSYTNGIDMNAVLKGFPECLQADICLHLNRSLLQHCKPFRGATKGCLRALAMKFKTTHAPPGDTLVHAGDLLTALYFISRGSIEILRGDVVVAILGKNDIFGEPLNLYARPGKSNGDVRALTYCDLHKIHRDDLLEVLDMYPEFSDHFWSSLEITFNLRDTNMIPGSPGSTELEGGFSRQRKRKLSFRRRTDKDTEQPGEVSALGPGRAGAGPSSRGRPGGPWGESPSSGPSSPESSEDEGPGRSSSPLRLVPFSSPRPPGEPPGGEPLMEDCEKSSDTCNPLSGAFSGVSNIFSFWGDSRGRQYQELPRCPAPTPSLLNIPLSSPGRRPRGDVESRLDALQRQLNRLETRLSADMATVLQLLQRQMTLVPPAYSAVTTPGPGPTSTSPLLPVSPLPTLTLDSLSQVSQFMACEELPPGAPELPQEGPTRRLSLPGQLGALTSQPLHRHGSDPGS

`O[C@@H]1[C@H](O)CS[C@H]1n1cnc2c(NCc3cccc(Cl)c3)nc(Cl)nc21` [Example 2, (2R,3R,4S)-2-(2-chloro-6-(3-chlorobenzylamino)-9H-purin-9-yl)tetrahydrothiophene-3,4-diol] was tested, and the “protein and mRNA expression levels of TIMP enzyme compared with the normal group” value (TIMP (TIMP 1, TIMP2)) was “significantly decreased”, the “toxicity, Cardiotoxicity test” value (hERG) was “Not found” and the inhibition at 10 µM (hERG; human, hERG channel protein (ligand binding assay), probe red fluorescent hERG channel ligand tracer, 10 μM, read-out: inhibition rate (hERG channel ligand tracer binding)) was ≤ 50%. For the same compound, the “toxicity, Genotoxicity test” value [1] was “Not found”, the “number of back-mutation reversion colonies” value ([1]; all doses of each strain, regardless of metabolic activation) was “did not exceed twice the negative control” and the “expression of fibronectin, SMA and MYOC protein in trabecular meshwork tissue” value [2] was “greatly reduced”. The “intraocular pressure, dose dependence” value (intraocular pressure) was “reduction in intraocular pressure, which was dependent on the dose”, the “toxicity, Single dose toxicity test” value (rats; rat, in vivo) was “Not found” and the dead animals (rats; single dose of 2,000 mg/kg, 5 male rats and 5 female rats) was “there was no dead animal”. For the same compound, the “protein and mRNA expression levels of MMP enzyme compared with the normal group” value (MMP (MMP2, MMP9)) was “significantly increased”, the “TPA-induced mouse ear edema” value [3] was “reduced by a small amount” and the “toxicity, Cytotoxicity Test” value (each cell line) was “Not found”.
